Laboratory results as given in publication PMC5418314, “First-in-human phase I study of SOR-C13, a TRPV6 calcium channel inhibitor, in patients with advanced solid tumors” (Investigational New Drugs, 2017).
Read-outs that look alike come from different tables or passages of the source. Ends that are not written are not given here.

How the values were obtained:
[1] = Phase I plasma pharmacokinetics; format: in vivo, human; conditions: human, plasma, iv, 90-min IV infusion, plasma LC-MS
Method: Blood samples were taken on Days 1, 3, 8 and 10 of Cycle 1 to assess the pharmacokinetic (PK) profile of SOR-C13 at the various doses used. Plasma samples for the IV 20 min infusion were taken at pre-infusion, 5, 15 min after the start of infusion and post-infusion at 2, 5, 10 and 30 min and 1, 4 h. Plasma samples for SOR-C13 analysis for the 90 min infusion were taken pre-infusion, at 5, 15 and 45 min after the start of infusion, and at 2, 5, 10 and 30 min post-infusion. Since the infusion for the majority of patients, and further studies will be IV 90 min only PK data for this infusion time are presented. Validated liquid chromatography-mass spectrometry analysis provided the plasma concentration/time data.

[2] = half-life in the blood compartment, rat; format: in vivo
[3] = test system: voltage-gated sodium channels; assay: voltage-gated sodium channel activity; format: biochemical
Phase I ECG assessment = format: in vivo, human
Text: A Safety Monitoring Committee (SMC) oversaw the safety aspects of the study. Safety endpoints included: incidence of adverse events (AEs) and serious AEs (SAEs), withdrawals due to AEs, Dose Limiting Toxicities (DLTs), infusion reactions, deaths on study, vital signs, electrocardiogram (ECGs), clinical laboratory parameters and changes to the treatment regimen (dose delay, dose decrease) due to AEs. The National Cancer Institute (NCI) Common Terminology Criteria for Adverse Events (CTCAE) Version 4.0 was used to grade the severity of AEs.

[4] = peptide degradation in human plasma; format: in vitro ADME
[5] = test system: voltage-gated calcium channels; assay: voltage-gated calcium channel activity; format: biochemical
hERG = hERG (Homo sapiens, UniProt Q12809); assay: hERG channel activity; format: biochemical
[6] = peptide degradation in rat plasma; format: in vitro ADME
[7] = half-life in the blood compartment, dog; format: in vivo

Chain of hERG (Q12809 whole entry): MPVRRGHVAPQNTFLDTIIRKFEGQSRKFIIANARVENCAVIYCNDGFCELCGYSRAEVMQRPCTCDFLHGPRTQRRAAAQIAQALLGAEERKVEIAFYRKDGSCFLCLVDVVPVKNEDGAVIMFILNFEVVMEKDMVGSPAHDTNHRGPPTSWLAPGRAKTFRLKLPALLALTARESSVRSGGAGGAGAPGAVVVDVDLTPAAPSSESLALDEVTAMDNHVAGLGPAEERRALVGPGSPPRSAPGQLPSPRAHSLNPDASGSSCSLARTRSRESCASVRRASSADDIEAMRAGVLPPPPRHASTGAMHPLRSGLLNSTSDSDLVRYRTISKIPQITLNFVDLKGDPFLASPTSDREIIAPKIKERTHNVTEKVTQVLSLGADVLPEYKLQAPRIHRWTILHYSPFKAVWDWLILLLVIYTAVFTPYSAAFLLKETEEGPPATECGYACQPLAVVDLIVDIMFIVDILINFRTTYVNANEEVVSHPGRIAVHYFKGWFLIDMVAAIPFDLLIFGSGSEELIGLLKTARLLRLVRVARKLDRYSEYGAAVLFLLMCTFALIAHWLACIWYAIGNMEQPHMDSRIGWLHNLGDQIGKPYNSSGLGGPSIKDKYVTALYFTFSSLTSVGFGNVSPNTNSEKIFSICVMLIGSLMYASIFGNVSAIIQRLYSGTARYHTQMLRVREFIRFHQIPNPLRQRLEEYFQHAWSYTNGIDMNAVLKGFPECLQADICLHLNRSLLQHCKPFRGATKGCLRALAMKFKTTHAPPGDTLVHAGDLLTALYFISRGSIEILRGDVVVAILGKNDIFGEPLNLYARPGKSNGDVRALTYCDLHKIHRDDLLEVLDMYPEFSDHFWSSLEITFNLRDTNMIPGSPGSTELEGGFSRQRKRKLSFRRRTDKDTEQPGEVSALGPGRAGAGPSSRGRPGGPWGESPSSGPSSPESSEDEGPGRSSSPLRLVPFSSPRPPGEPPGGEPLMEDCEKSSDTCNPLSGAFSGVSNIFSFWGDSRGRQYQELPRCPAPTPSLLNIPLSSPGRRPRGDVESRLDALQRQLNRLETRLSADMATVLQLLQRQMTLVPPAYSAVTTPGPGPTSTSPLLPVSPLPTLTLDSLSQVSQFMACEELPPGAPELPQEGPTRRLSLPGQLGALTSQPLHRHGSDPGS

KEFLHPSKVDLPR [SOR-C13]
Tmax ([1]; 2.75 mg/kg, Cohort 4: 2.75 mg/kg, N = 6, Cycle 1 Day 10, read-out: Time to peak plasma concentration, Median): 30 min | AUC(0-t) ([1]; 4.13 mg/kg, Cohort 5: 4.13 mg/kg, N = 3, Cycle 1 Day 1, read-out: AUCtau, Mean (SD)): 78.4 ng·h/mL | AUC(0-t) ([1]; 4.13 mg/kg, Cohort 5: 4.13 mg/kg, N = 3, Cycle 1 Day 1, read-out: AUCtau, Median): 23.4 ng·h/mL | Cmax ([1]; 4.13 mg/kg, Cohort 5: 4.13 mg/kg, N = 3, Cycle 1 Day 1, read-out: Peak plasma concentration, Mean (SD)): 139 ng/mL | Cmax ([1]; 4.13 mg/kg, Cohort 5: 4.13 mg/kg, N = 3, Cycle 1 Day 1, read-out: Peak plasma concentration, Median): 42 ng/mL | Tmax ([1]; 4.13 mg/kg, Cohort 5: 4.13 mg/kg, N = 3, Cycle 1 Day 1, read-out: Time to peak plasma concentration, Mean (SD)): 25 min | Tmax ([1]; 4.13 mg/kg, Cohort 5: 4.13 mg/kg, N = 3, Cycle 1 Day 1, read-out: Time to peak plasma concentration, Median): 15 min | AUC(0-t) ([1]; 4.13 mg/kg, Cohort 5: 4.13 mg/kg, N = 3, Cycle 1 Day 3, read-out: AUCtau, Mean (SD)): 373 ng·h/mL | AUC(0-t) ([1]; 4.13 mg/kg, Cohort 5: 4.13 mg/kg, N = 3, Cycle 1 Day 3, read-out: AUCtau, Median): 403 ng·h/mL | Cmax ([1]; 4.13 mg/kg, Cohort 5: 4.13 mg/kg, N = 3, Cycle 1 Day 3, read-out: Peak plasma concentration, Mean (SD)): 369 ng/mL | Cmax ([1]; 4.13 mg/kg, Cohort 5: 4.13 mg/kg, N = 3, Cycle 1 Day 3, read-out: Peak plasma concentration, Median): 403 ng/mL | Tmax ([1]; 4.13 mg/kg, Cohort 5: 4.13 mg/kg, N = 3, Cycle 1 Day 3, read-out: Time to peak plasma concentration, Mean (SD)): 35 min | Tmax ([1]; 4.13 mg/kg, Cohort 5: 4.13 mg/kg, N = 3, Cycle 1 Day 3, read-out: Time to peak plasma concentration, Median): 45 min | AUC(0-t) ([1]; 4.13 mg/kg, Cohort 5: 4.13 mg/kg, N = 3, Cycle 1 Day 8, read-out: AUCtau, Mean (SD)): 197 ng·h/mL | AUC(0-t) ([1]; 4.13 mg/kg, Cohort 5: 4.13 mg/kg, N = 3, Cycle 1 Day 8, read-out: AUCtau, Median): 245 ng·h/mL | Cmax ([1]; 4.13 mg/kg, Cohort 5: 4.13 mg/kg, N = 3, Cycle 1 Day 8, read-out: Peak plasma concentration, Mean (SD)): 212 ng/mL | Cmax ([1]; 4.13 mg/kg, Cohort 5: 4.13 mg/kg, N = 3, Cycle 1 Day 8, read-out: Peak plasma concentration, Median): 264 ng/mL | Tmax ([1]; 4.13 mg/kg, Cohort 5: 4.13 mg/kg, N = 3, Cycle 1 Day 8, read-out: Time to peak plasma concentration, Mean (SD)): 18.2 min | Tmax ([1]; 4.13 mg/kg, Cohort 5: 4.13 mg/kg, N = 3, Cycle 1 Day 8, read-out: Time to peak plasma concentration, Median): 4.8 min | AUC(0-t) ([1]; 4.13 mg/kg, Cohort 5: 4.13 mg/kg, N = 3, Cycle 1 Day 10, read-out: AUCtau, Mean (SD)): 273 ng·h/mL | AUC(0-t) ([1]; 4.13 mg/kg, Cohort 5: 4.13 mg/kg, N = 3, Cycle 1 Day 10, read-out: AUCtau, Median): 324 ng·h/mL | Cmax ([1]; 4.13 mg/kg, Cohort 5: 4.13 mg/kg, N = 3, Cycle 1 Day 10, read-out: Peak plasma concentration, Mean (SD)): 280 ng/mL | Cmax ([1]; 4.13 mg/kg, Cohort 5: 4.13 mg/kg, N = 3, Cycle 1 Day 10, read-out: Peak plasma concentration, Median): 295 ng/mL | Tmax ([1]; 4.13 mg/kg, Cohort 5: 4.13 mg/kg, N = 3, Cycle 1 Day 10, read-out: Time to peak plasma concentration, Mean (SD)): 21.6 min | AUC(0-t) ([1]; 6.2 mg/kg, Cohort 6: 6.2 mg/kg, N = 6, Cycle 1 Day 1, read-out: AUCtau, Mean (SD)): 1130 ng·h/mL | AUC(0-t) ([1]; 6.2 mg/kg, Cohort 6: 6.2 mg/kg, N = 6, Cycle 1 Day 1, read-out: AUCtau, Median): 570 ng·h/mL | Cmax ([1]; 6.2 mg/kg, Cohort 6: 6.2 mg/kg, N = 6, Cycle 1 Day 1, read-out: Peak plasma concentration, Mean (SD)): 1150 ng/mL | Cmax ([1]; 6.2 mg/kg, Cohort 6: 6.2 mg/kg, N = 6, Cycle 1 Day 1, read-out: Peak plasma concentration, Median): 682 ng/mL | Tmax ([1]; 6.2 mg/kg, Cohort 6: 6.2 mg/kg, N = 6, Cycle 1 Day 1, read-out: Time to peak plasma concentration, Mean (SD)): 56.6 min | AUC(0-t) ([1]; 6.2 mg/kg, Cohort 6: 6.2 mg/kg, N = 6, Cycle 1 Day 3, read-out: AUCtau, Mean (SD)): 1100 ng·h/mL | AUC(0-t) ([1]; 6.2 mg/kg, Cohort 6: 6.2 mg/kg, N = 6, Cycle 1 Day 3, read-out: AUCtau, Median): 904 ng·h/mL | Cmax ([1]; 6.2 mg/kg, Cohort 6: 6.2 mg/kg, N = 6, Cycle 1 Day 3, read-out: Peak plasma concentration, Mean (SD)): 1020 ng/mL | Cmax ([1]; 6.2 mg/kg, Cohort 6: 6.2 mg/kg, N = 6, Cycle 1 Day 3, read-out: Peak plasma concentration, Median): 843 ng/mL | Tmax ([1]; 6.2 mg/kg, Cohort 6: 6.2 mg/kg, N = 6, Cycle 1 Day 3, read-out: Time to peak plasma concentration, Mean (SD)): 27.7 min | Tmax ([1]; 6.2 mg/kg, Cohort 6: 6.2 mg/kg, N = 6, Cycle 1 Day 3, read-out: Time to peak plasma concentration, Median): 9.9 min | AUC(0-t) ([1]; 6.2 mg/kg, Cohort 6: 6.2 mg/kg, N = 6, Cycle 1 Day 8, read-out: AUCtau, Mean (SD)): 1340 ng·h/mL | AUC(0-t) ([1]; 6.2 mg/kg, Cohort 6: 6.2 mg/kg, N = 6, Cycle 1 Day 8, read-out: AUCtau, Median): 843 ng·h/mL | Cmax ([1]; 6.2 mg/kg, Cohort 6: 6.2 mg/kg, N = 6, Cycle 1 Day 8, read-out: Peak plasma concentration, Mean (SD)): 1440 ng/mL | Cmax ([1]; 6.2 mg/kg, Cohort 6: 6.2 mg/kg, N = 6, Cycle 1 Day 8, read-out: Peak plasma concentration, Median): 826 ng/mL | Tmax ([1]; 6.2 mg/kg, Cohort 6: 6.2 mg/kg, N = 6, Cycle 1 Day 8, read-out: Time to peak plasma concentration, Mean (SD)): 45.8 min | AUC(0-t) ([1]; 6.2 mg/kg, Cohort 6: 6.2 mg/kg, N = 6, Cycle 1 Day 10, read-out: AUCtau, Mean (SD)): 1430 ng·h/mL | AUC(0-t) ([1]; 6.2 mg/kg, Cohort 6: 6.2 mg/kg, N = 6, Cycle 1 Day 10, read-out: AUCtau, Median): 830 ng·h/mL | Cmax ([1]; 6.2 mg/kg, Cohort 6: 6.2 mg/kg, N = 6, Cycle 1 Day 10, read-out: Peak plasma concentration, Mean (SD)): 1380 ng/mL | Cmax ([1]; 6.2 mg/kg, Cohort 6: 6.2 mg/kg, N = 6, Cycle 1 Day 10, read-out: Peak plasma concentration, Median): 794 ng/mL | Tmax ([1]; 6.2 mg/kg, Cohort 6: 6.2 mg/kg, N = 6, Cycle 1 Day 10, read-out: Time to peak plasma concentration, Mean (SD)): 36.1 min | Tmax ([1]; 6.2 mg/kg, Cohort 6: 6.2 mg/kg, N = 6, Cycle 1 Day 10, read-out: Time to peak plasma concentration, Median): 30 min | half-life in the blood compartment [2]: < 5 min | modulation of channel activity [3]: no modulation of channel activity | mean changes in QTc intervals compared to pre-infusion values (Phase I ECG assessment; 90-min infusions (N = 18), Cycle 1): −4.2 to +12.7 msec | ECG abnormalities (Phase I ECG assessment; during the study): No clinically significant ECG abnormalities | QT or QTc prolongations above 500 msec (Phase I ECG assessment; during the study): no QT or QTc prolongations above 500 msec | QTc prolongation >60 msec compared to baseline or same-day pre-dose values (Phase I ECG assessment; during the study): no patient experienced QTc prolongation >60 msec | peptide degradation half-life [4]: about 1 h | modulation of channel activity [5]: no modulation of channel activity | modulation of channel activity (hERG): no modulation of channel activity | peptide degradation half-life [6]: about 1 h | half-life in the blood compartment [7]: < 5 min
